# Assay results published in paper PMC5080985 (Journal of medicinal chemistry, 2015).
# Experiments:
# AmpC β-lactamase = AmpC β-lactamase (Escherichia coli, UniProt P00811); assay: Controls for colloidal aggregation; settings: AmpC β-lactamase counterscreen, particle formation by DLS
# KDM4C [1] = target: T1, KDM4C (Homo sapiens, UniProt Q9H3R0); assay: Thermal shift assay; format: binding
# T1 sequence (Q9H3R0 1-1056): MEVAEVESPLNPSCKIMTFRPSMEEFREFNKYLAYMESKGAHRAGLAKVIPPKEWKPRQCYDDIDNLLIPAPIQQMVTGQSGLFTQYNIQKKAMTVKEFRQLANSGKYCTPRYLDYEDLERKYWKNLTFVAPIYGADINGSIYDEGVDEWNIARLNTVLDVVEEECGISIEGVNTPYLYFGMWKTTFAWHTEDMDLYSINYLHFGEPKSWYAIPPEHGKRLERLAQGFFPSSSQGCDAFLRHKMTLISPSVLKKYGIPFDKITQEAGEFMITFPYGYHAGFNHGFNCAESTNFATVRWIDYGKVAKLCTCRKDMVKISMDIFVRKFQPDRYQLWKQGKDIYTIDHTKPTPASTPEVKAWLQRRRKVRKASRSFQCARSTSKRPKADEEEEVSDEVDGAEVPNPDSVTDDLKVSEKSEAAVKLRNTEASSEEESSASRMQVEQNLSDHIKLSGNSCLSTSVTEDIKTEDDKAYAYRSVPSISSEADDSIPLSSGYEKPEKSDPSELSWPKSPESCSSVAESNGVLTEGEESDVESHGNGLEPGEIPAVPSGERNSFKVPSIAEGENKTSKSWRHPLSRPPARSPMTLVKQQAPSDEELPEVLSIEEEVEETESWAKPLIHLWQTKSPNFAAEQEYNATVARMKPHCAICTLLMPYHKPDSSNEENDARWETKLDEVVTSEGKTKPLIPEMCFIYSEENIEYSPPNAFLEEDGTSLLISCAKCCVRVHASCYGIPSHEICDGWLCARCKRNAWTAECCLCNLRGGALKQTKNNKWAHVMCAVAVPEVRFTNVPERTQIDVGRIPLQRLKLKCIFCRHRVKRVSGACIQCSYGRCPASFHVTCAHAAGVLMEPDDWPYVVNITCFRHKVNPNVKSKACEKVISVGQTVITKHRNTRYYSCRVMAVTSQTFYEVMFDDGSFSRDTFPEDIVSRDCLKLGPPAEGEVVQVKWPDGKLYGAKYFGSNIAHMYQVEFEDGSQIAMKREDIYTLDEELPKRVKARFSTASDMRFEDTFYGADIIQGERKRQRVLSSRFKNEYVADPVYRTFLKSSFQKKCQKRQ
# KDM4C [2] = target: T1, KDM4C; assay: MALDI assay, KDM4C; format: biochemical
# FIH = FIH (Homo sapiens, UniProt Q9NWT6); assay: MALDI counterscreen, FIH; format: biochemical
# KDM5B (JARID1B, PLU-1) = KDM5B (JARID1B, PLU-1) (Homo sapiens, UniProt Q9UGL1); assay: AlphaScreen counterscreen, KDM5B; format: biochemical
# KDM4C [3] = target: T2, KDM4C (Homo sapiens, UniProt Q9H3R0); assay: KDM4C time-resolved FRET; format: biochemical
# T2 sequence (Q9H3R0 1-352): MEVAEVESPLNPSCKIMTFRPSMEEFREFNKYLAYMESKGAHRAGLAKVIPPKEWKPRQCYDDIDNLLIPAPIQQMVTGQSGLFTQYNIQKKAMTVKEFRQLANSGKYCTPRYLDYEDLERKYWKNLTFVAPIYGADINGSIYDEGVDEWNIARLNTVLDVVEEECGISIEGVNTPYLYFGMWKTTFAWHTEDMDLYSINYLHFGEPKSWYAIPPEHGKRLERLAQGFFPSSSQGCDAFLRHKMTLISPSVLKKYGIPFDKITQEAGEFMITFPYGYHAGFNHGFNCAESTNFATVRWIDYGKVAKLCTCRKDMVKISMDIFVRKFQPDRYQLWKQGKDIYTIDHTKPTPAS
# KDM2A (FBXL11) = target: T3, KDM2A (FBXL11) (Homo sapiens, UniProt Q9Y2K7); assay: AlphaScreen counterscreen, KDM2A; format: biochemical
# T3 sequence (Q9Y2K7 1-1162): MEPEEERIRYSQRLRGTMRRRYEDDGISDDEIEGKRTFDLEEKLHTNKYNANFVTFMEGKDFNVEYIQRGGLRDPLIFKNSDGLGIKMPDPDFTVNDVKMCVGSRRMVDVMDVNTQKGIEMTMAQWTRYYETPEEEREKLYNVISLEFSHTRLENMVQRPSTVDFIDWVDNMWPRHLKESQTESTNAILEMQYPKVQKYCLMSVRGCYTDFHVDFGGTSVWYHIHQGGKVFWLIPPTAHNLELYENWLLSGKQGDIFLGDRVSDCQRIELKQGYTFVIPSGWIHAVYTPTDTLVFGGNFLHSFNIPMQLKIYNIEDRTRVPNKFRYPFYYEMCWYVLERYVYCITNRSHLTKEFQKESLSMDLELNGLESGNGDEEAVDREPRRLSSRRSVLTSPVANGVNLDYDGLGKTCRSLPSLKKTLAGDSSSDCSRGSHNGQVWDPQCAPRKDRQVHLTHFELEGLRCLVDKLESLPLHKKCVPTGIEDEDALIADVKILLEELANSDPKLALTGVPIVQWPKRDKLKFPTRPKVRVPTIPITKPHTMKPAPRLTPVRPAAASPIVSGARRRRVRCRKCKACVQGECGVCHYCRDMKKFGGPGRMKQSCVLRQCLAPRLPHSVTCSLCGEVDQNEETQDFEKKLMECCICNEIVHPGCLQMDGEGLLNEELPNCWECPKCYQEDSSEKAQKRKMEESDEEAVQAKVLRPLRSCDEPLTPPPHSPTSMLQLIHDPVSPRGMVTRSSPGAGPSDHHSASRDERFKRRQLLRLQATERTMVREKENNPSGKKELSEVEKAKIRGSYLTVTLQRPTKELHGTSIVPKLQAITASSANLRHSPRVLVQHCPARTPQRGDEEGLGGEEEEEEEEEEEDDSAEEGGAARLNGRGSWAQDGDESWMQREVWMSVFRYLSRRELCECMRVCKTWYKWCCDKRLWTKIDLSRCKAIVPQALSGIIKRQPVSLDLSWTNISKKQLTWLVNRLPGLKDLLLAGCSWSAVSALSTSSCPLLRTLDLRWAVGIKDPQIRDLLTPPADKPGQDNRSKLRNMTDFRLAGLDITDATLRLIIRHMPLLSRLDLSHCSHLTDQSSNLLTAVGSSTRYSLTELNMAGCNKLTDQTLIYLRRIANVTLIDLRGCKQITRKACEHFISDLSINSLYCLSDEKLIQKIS
# KDM6B (JMJD3) = KDM6B (JMJD3) (Homo sapiens, UniProt O15054); assay: AlphaScreen counterscreen, KDM6B; format: biochemical
# Sequence of KDM6B (JMJD3) (O15054 whole entry, species assumed): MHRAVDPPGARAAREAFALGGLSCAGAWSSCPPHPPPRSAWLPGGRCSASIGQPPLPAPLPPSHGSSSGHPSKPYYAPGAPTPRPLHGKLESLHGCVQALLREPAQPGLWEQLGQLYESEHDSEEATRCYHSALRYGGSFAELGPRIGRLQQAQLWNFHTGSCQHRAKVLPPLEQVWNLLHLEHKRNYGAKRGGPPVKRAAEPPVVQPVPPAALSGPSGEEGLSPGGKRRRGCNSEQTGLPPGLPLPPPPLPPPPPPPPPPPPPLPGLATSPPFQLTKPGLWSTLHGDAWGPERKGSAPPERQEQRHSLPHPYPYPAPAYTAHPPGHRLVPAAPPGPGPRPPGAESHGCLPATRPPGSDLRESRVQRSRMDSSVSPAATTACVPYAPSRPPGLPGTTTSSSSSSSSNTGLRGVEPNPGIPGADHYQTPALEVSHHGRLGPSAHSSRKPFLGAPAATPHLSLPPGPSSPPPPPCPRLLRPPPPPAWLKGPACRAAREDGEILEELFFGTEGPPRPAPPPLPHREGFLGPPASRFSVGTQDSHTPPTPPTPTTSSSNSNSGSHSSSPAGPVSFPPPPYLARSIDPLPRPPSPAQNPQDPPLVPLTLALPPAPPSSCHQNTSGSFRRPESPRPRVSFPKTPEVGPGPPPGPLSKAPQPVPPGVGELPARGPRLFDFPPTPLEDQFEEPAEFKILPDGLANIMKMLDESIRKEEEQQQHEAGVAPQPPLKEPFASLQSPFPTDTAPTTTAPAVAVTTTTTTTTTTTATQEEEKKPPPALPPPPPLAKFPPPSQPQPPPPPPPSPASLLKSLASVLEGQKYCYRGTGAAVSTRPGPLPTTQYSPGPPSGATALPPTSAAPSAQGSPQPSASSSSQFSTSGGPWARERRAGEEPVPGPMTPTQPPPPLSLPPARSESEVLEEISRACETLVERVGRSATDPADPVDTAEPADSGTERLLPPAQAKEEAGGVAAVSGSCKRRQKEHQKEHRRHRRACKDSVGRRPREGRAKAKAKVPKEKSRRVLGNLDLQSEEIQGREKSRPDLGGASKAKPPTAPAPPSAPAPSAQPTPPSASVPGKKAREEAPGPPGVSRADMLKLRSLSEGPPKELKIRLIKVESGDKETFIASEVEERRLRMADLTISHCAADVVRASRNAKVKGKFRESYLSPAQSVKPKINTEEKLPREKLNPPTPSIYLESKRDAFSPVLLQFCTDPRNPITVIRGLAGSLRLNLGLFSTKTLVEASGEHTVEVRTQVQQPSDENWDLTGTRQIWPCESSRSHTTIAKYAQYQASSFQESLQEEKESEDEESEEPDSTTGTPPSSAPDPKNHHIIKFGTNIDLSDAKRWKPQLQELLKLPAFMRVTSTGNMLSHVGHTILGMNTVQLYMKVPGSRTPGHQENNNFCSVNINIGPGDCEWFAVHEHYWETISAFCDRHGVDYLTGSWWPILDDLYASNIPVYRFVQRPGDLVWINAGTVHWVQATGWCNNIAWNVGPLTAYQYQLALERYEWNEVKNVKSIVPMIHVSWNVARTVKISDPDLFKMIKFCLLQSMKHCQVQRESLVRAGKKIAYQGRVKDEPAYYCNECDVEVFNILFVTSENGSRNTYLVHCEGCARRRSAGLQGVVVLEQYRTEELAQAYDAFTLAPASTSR
# Sequence of AmpC β-lactamase (P00811 20-377): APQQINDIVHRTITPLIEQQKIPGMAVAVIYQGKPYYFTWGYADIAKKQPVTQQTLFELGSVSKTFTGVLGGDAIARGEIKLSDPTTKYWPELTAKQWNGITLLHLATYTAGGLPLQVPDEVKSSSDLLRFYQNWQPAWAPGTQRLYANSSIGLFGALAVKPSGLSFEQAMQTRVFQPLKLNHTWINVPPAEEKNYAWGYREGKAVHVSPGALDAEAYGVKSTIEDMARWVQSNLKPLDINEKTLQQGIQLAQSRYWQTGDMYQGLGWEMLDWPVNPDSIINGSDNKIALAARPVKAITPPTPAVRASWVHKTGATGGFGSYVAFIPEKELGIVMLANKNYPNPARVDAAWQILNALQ
# Sequence of FIH (Q9NWT6 whole entry): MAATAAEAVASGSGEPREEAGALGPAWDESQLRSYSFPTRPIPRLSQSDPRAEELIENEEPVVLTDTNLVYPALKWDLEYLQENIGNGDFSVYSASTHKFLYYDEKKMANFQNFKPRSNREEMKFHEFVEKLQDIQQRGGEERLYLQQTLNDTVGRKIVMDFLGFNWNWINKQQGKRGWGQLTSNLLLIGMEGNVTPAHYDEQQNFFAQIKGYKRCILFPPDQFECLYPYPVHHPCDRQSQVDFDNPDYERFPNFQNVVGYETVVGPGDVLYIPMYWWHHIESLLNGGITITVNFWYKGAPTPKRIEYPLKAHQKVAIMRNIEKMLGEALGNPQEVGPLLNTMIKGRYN
# Sequence of KDM5B (JARID1B, PLU-1) (Q9UGL1 whole entry, species assumed): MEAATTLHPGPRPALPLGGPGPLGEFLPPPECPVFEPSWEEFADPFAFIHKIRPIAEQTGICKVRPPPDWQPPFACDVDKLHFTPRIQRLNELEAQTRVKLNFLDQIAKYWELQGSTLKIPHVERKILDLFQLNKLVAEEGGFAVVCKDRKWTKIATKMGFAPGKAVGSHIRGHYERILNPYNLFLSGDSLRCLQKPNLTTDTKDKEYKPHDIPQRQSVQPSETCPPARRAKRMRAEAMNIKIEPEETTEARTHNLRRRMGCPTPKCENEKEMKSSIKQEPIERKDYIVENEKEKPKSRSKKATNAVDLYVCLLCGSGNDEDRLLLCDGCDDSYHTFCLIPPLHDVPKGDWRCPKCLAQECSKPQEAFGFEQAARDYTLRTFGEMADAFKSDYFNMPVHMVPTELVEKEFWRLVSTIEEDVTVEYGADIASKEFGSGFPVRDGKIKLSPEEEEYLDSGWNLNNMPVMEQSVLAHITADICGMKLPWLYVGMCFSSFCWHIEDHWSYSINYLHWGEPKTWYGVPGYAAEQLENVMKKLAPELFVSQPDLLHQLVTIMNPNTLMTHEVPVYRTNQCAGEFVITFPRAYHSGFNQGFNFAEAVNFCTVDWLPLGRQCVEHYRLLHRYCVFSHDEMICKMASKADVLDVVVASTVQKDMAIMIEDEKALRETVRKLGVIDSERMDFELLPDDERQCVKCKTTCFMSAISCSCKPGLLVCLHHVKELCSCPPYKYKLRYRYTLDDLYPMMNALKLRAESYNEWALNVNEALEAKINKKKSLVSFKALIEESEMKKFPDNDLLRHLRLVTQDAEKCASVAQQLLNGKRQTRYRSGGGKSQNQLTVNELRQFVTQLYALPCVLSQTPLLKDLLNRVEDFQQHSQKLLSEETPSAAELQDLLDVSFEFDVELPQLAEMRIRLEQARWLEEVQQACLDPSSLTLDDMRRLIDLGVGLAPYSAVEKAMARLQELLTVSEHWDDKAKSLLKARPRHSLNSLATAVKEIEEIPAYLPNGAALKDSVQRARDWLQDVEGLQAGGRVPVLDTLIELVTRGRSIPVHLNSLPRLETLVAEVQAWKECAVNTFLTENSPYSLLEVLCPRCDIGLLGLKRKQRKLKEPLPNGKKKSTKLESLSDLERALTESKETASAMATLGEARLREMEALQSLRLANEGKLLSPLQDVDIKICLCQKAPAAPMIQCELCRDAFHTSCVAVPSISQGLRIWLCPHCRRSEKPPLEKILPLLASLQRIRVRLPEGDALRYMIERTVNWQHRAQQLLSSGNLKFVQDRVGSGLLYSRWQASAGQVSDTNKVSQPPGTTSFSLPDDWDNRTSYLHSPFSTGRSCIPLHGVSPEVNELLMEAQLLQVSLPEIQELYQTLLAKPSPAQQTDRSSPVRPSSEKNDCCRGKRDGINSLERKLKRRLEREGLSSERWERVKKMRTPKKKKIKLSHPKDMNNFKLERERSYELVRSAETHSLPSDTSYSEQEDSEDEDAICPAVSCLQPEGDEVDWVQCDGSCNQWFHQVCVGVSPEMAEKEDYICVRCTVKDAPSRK
compound,measurement,setting,value
Cn1nccc1CNc1ccc(O)c(C(=O)O)c1 [Compound 4],nonspecific inhibition / colloidal aggregation,AmpC β-lactamase,neither of the two inhibitors acted as aggregators in a relevant concentration range
COCC(=O)Nc1ccc(O)c(C(=O)O)c1 [Compound 5],nonspecific inhibition / colloidal aggregation,AmpC β-lactamase,neither of the two inhibitors acted as aggregators in a relevant concentration range
Cc1ccccc1CNc1ccc(O)c(C(=O)O)c1 [Compound 20],stabilization of the enzyme in thermal shift assays,KDM4C [1],stabilized the enzyme in thermal shift assays
same,nonspecific inhibition / colloidal aggregation,AmpC β-lactamase,did not exhibit nonspecific inhibition
"Nc1ccc(O)c(-c2cc(C(=O)O)ccn2)c1 [Compound 30, 2-(5-Amino-2-hydroxyphenyl)-isonicotinic Acid]",IC50,KDM4C [2],135 µM
same,IC50,FIH,828 µM
same,"fold selectivity over KDM4C, FIH","FIH; MALDI, 100 μM α-KG",6 fold
O=C(O)c1ccnc(-c2cc(NC(=O)c3ccc(O)cc3)ccc2O)c1 [Compound 35],"fold selectivity over KDM4C, FIH","FIH; MALDI, 100 μM α-KG",> 85 fold
same,"fold selectivity over KDM4C, KDM5B","KDM5B (JARID1B, PLU-1)",Ml
COc1cccc(CC(=O)Nc2ccc(O)c(-c3cc(C(=O)O)ccn3)c2)c1 [Compound 40],"fold selectivity over KDM4C, FIH","FIH; MALDI, 100 μM α-KG",> 68 fold
COCC(=O)Nc1ccc(O)c(-c2cc(C(=O)O)ccn2)c1 [Compound 42],fold improvement in potency over the parent 5-aminosalicylate fragment,"KDM4C [3]; TR-FRET IC50 at 2 μM α-KG, 42 vs 5, 21 vs 4",~700 fold
same,"fold selectivity over KDM4C, FIH","FIH; MALDI, 100 μM α-KG",> 11 fold
CC(=O)Nc1ccc(O)c(-c2cc(C(=O)O)ccn2)c1 [Compound 44],"fold selectivity over KDM4C, FIH","FIH; MALDI, 100 μM α-KG",> 8 fold
same,"IC50 FIH, MALDI Assays","FIH; MALDI, 100 μM α-KG, >500 = no inhibition at 500 μM inhibitor",no inhibition
same,"fold selectivity over KDM4C, KDM2A",KDM2A (FBXL11),> 6 fold
same,"fold selectivity over KDM4C, KDM6B",KDM6B (JMJD3),> 6 fold
CC(=O)Nc1ccc(O)c(C(=O)O)c1 [N-acetyl-5-aminosalicylic acid],IC50(μM) 2μM αKG,"KDM4C [3]; KDM4C, TR-FRET, 2 μM α-KG",no inhibition
